Results as given in publication PMC5049785, “Characterization of Novel Antimalarial Compound ACT-451840: Preclinical Assessment of Activity and Dose–Efficacy Modeling” (PLoS Medicine, 2016).

Experiments:
[1] = system: GFP-transfected P. berghei ANKA strain; test: In vivo efficacy, P. berghei mouse model; design: species or system Plasmodium berghei in female NMRI mice; details: for infected mice cured: no detectable parasites on Day 30, n=5
Protocol: In vivo efficacy against P. berghei was conducted at the Swiss TPH as previously described, with the modification that female NMRI mice from Harlan (Horst, The Netherlands) (n = 3) were infected with a GFP-transfected P. berghei ANKA strain (kindly donated by A. P. Waters and C. J. Janse, Leiden University Medical Center, The Netherlands) and parasitemia was determined using standard flow cytometry techniques. ACT-451840 was dissolved or suspended in corn oil before dosing and administered 24 h after infection (single-dose regimen) or 24, 48, and 72 h after infection (triple-dose regimen). With the single-dose regimen, blood was collected on Day 3 (72 h after infection). Samples for the triple-dose regimens were collected on Day 4 (96 h after infection). Antimalarial activity was calculated as the difference between the mean percent parasitemia for the control and treated groups expressed as a percent relative to the control group, consisting of five mice. Control mice were euthanized on Day 4 in order to prevent death typically occurring on Day 6. For the consistency in PK/PD modeling, Day 5 instead of Day 6 was considered the day of death, because treated animals were always euthanized one day before their natural death for animal welfare reasons. Animals were considered cured if there were no detectable parasites on Day 30 post-infection. To confirm the reliability of this assumption, blood from the surviving mice in curative experiments was inoculated into uninfected mice, and no parasitemia developed in these mice even after 30 d. The antimalarial efficacy is defined either as antimalarial activity or as survival: the two readouts of the P. berghei murine model.

[2] = Single compartment PK model with saturable absorption (predicted blood PK); design: species or system mice; details: for Time over threshold (h), predicted: threshold 1,000 ng/mL
Protocol: In order to analyze the PK/PD relationship, drug exposure was predicted for all tested doses in P. berghei mouse model using a single compartment model with saturable absorption based on the concentration–time profile observed after 10, 100, and 300 mg/kg single-dose regimen in healthy mice.

[3] = Effect of formulation and food on oral pharmacokinetics in dogs; type: in vivo; details: for AUC0-∞ geometric mean / Cmax geometric mean: dogs
Protocol: The fumarate salt of ACT-451840 was administered orally at 10 mg/kg to fasted and fed male dogs (100 mg/dog, n = 4) as a suspension in an aqueous vehicle containing 0.5% (w/w) methylcellulose.

[4] = cited from earlier work
[5] = single-dose regimen, oral 10 mg/kg
[6] = single-dose regimen, oral 15 mg/kg
[7] = single-dose regimen, oral 20 mg/kg
[8] = single-dose regimen, oral 25 mg/kg
[9] = single-dose regimen, oral 30 mg/kg
[10] = single-dose regimen, oral 60 mg/kg
[11] = single-dose regimen, oral 80 mg/kg
[12] = single-dose regimen, oral 100 mg/kg
[13] = single-dose regimen, oral 300 mg/kg
[14] = triple-dose regimen, oral 3 mg/kg once per day
[15] = triple-dose regimen, oral 10 mg/kg once per day
[16] = triple-dose regimen, oral 30 mg/kg once per day
[17] = triple-dose regimen, oral 50 mg/kg once per day
[18] = triple-dose regimen, oral 100 mg/kg once per day
[19] = triple-dose regimen, oral 300 mg/kg once per day
[20] = triple-dose regimen, oral 2 x 15 mg/kg (twice per day)
[21] = triple-dose regimen, oral 2 x 30 mg/kg (twice per day)
[22] = mouse PK model parameter estimate
[23] = 100 mg oral, aqueous suspension, fasted
[24] = fumarate salt 100 mg oral, aqueous suspension containing 0.5% methylcellulose, fasted
[25] = fumarate salt 100 mg oral, aqueous suspension containing 0.5% methylcellulose, fed
[26] = methylcellulose suspension, higher in fed

What does the source list for `CC(=O)N1CCN(c2ccc(CN(C(=O)/C=C/c3ccc(C(C)(C)C)cc3)[C@@H](Cc3ccccc3)C(=O)N3CCN(Cc4ccc(C#N)cc4)CC3)cc2)CC1` [ACT-451840]?
infected mice cured ([1]; 100 mg/kg triple-dose regimen): 20%; infected mice cured ([1]; 300 mg/kg triple-dose regimen): 100%; ED90 ([1]; oral triple-dose regimen, calculated from data in S2 Text): 13 mg/kg; Antimalarial activity (%) [1, 5]: 21.75%; Survival [1, 5]: 5.0 days; Antimalarial activity (%) [1, 6]: 39.00%; Survival [1, 6]: 5.0 days; Antimalarial activity (%) [1, 7]: 76.23%; Survival [1, 7]: 7.0 days; Antimalarial activity (%) [1, 8]: 90.29%; Survival [1, 8]: 6.7 days; Antimalarial activity (%) [1, 9]: 97.42%; Survival [1, 9]: 7.9 days; Antimalarial activity (%) [1, 10]: 99.40%; Survival [1, 10]: 13.7 days; Antimalarial activity (%) [1, 11]: 98.88%; Survival [1, 11]: 12.7 days; Antimalarial activity (%) [1, 12]: 99.19%; Survival [1, 12]: 12.4 days; Antimalarial activity (%) [1, 13]: 98.84%; Survival [1, 13]: 15.7 days; Antimalarial activity (%) [1, 14]: 0.00%; Survival [1, 14]: 6.0 days; Antimalarial activity (%) [1, 15]: 32.25%; Antimalarial activity (%) [1, 16]: 99.53%; Antimalarial activity (%) [1, 17]: 99.78%; Survival [1, 17]: 15.6 days; Antimalarial activity (%) [1, 18]: 99.84%; Survival [1, 18]: 21.8 days; Antimalarial activity (%) [1, 19]: 99.78%; Survival [1, 19]: 30.0 days; Antimalarial activity (%) [1, 20]: 99.06%; Survival [1, 20]: 9.0 days; Antimalarial activity (%) [1, 21]: 99.81%; Survival [1, 21]: 14.6 days; total AUC giving an ED90 ([2]; P. berghei model, triple-dose regimen of 13 mg/kg): 16,300 ng*h/mL; Clearance/bioavailability [2, 22]: 2.4 L/h; Concentration at half the maximal absorption [2, 22]: 64 µg/mL; Max Absorption [2, 22]: 21 µg/h/kg; Volume of distribution/bioavailability [2, 22]: 4.3 L/kg; Cmax (ng/mL), predicted [2, 5]: 617 ng/mL; Tmax (h), predicted [2, 5]: 3 h; Total AUC over the treatment period (ng/mL*h), predicted [2, 5]: 4.17 µg·h/mL; Time over threshold (h), predicted [2, 5]: 0 h; Cmax (ng/mL), predicted [2, 6]: 901 ng/mL; Tmax (h), predicted [2, 6]: 3 h; Total AUC over the treatment period (ng/mL*h), predicted [2, 6]: 6.26 µg·h/mL; Time over threshold (h), predicted [2, 6]: 0 h; Cmax (ng/mL), predicted [2, 7]: 1170 ng/mL; Tmax (h), predicted [2, 7]: 3 h; Total AUC over the treatment period (ng/mL*h), predicted [2, 7]: 8.35 µg·h/mL; Time over threshold (h), predicted [2, 7]: 0 h; Cmax (ng/mL), predicted [2, 8]: 1420 ng/mL; Tmax (h), predicted [2, 8]: 3 h; Total AUC over the treatment period (ng/mL*h), predicted [2, 8]: 10.4 µg·h/mL; Time over threshold (h), predicted [2, 8]: 0 h; Cmax (ng/mL), predicted [2, 9]: 1670 ng/mL; Tmax (h), predicted [2, 9]: 3 h; Total AUC over the treatment period (ng/mL*h), predicted [2, 9]: 12.5 µg·h/mL; Time over threshold (h), predicted [2, 9]: 0 h; Cmax (ng/mL), predicted [2, 10]: 2900 ng/mL; Tmax (h), predicted [2, 10]: 4 h; Total AUC over the treatment period (ng/mL*h), predicted [2, 10]: 25.1 µg·h/mL; Time over threshold (h), predicted [2, 10]: 7 h; Cmax (ng/mL), predicted [2, 11]: 3540 ng/mL; Tmax (h), predicted [2, 11]: 4 h; Total AUC over the treatment period (ng/mL*h), predicted [2, 11]: 33.4 µg·h/mL; Time over threshold (h), predicted [2, 11]: 9 h; Cmax (ng/mL), predicted [2, 12]: 4090 ng/mL; Tmax (h), predicted [2, 12]: 6 h; Total AUC over the treatment period (ng/mL*h), predicted [2, 12]: 41.8 µg·h/mL; Time over threshold (h), predicted [2, 12]: 11 h; Cmax (ng/mL), predicted [2, 13]: 6690 ng/mL; Tmax (h), predicted [2, 13]: 6.5 h; Total AUC over the treatment period (ng/mL*h), predicted [2, 13]: 126 µg·h/mL; Time over threshold (h), predicted [2, 13]: 24 h; Cmax (ng/mL), predicted [2, 14]: 192 ng/mL; Tmax (h), predicted [2, 14]: 27 h; Total AUC over the treatment period (ng/mL*h), predicted [2, 14]: 3.75 µg·h/mL; Time over threshold (h), predicted [2, 14]: 0 h; Cmax (ng/mL), predicted [2, 15]: 617 ng/mL; Tmax (h), predicted [2, 15]: 27 h; Total AUC over the treatment period (ng/mL*h), predicted [2, 15]: 12.5 µg·h/mL; Time over threshold (h), predicted [2, 15]: 0 h; Cmax (ng/mL), predicted [2, 16]: 1,670 ng/mL; Tmax (h), predicted [2, 16]: 51 h; Total AUC over the treatment period (ng/mL*h), predicted [2, 16]: 37.6 µg·h/mL; Time over threshold (h), predicted [2, 16]: 0 h; Cmax (ng/mL), predicted [2, 17]: 2530 ng/mL; Tmax (h), predicted [2, 17]: 27 h; Total AUC over the treatment period (ng/mL*h), predicted [2, 17]: 62.7 µg·h/mL; Time over threshold (h), predicted [2, 17]: 16 h; Cmax (ng/mL), predicted [2, 18]: 4100 ng/mL; Tmax (h), predicted [2, 18]: 52 h; Total AUC over the treatment period (ng/mL*h), predicted [2, 18]: 125 µg·h/mL; Time over threshold (h), predicted [2, 18]: 32 h; Cmax (ng/mL), predicted [2, 19]: 6830 ng/mL; Tmax (h), predicted [2, 19]: 54 h; Time over threshold (h), predicted [2, 19]: 72 h; Cmax (ng/mL), predicted [2, 20]: 1060 ng/mL; Tmax (h), predicted [2, 20]: 35 h; Total AUC over the treatment period (ng/mL*h), predicted [2, 20]: 37.6 µg·h/mL; Time over threshold (h), predicted [2, 20]: 0 h; Cmax (ng/mL), predicted [2, 21]: 1980 ng/mL; Tmax (h), predicted [2, 21]: 59 h; Total AUC over the treatment period (ng/mL*h), predicted [2, 21]: 75.2 µg·h/mL; Time over threshold (h), predicted [2, 21]: 8 h; AUC0-∞ geometric mean [3, 23]: 0.12 µg·h/mL; Cmax geometric mean [3, 23]: 0.0262 µg/mL; AUC0-∞ geometric mean [3, 24]: 0.304 µg·h/mL; Cmax geometric mean [3, 24]: 0.0462 µg/mL; AUC0-∞ geometric mean [3, 25]: 1.72 µg·h/mL; Cmax geometric mean [3, 25]: 0.171 µg/mL; AUC fed dogs versus fasted dogs [3, 26]: 5.7 fold; Cmax fed dogs versus fasted dogs [3, 26]: 3.7 fold; exposure (AUC) observed in humans ([4]; single 500 mg dose, fed human subjects): 1,408 ng*h/mL; terminal half-life ([4]; single ascending dose study): 34 h; tolerability ([4]; single ascending dose, first-in-man study in healthy male participants): well tolerated
